According to PubChem BioAssay (NCI):
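Where inhibition never reached the appropriate level, the endpoint shown equals the highest concentration tested. Otherwise, values were interpolated linearly from a five-concentration, 48-hour dose response in 96-well plates. GI50 = concentration required for 50% inhibition of growth. At the TGI there is no net growth.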

Tests used:
Experiment in all cases: NCI tumour cell line growth inhibition, 48 h
P388/ADR leukemia = test system: P388/ADR leukemia
SNB-19 CNS = test system: SNB-19 CNS
SK-MEL-5 melanoma = test system: SK-MEL-5 melanoma
HT29 colon = test system: HT29 colon
CAKI-1 renal = test system: CAKI-1 renal
SK-OV-3 ovarian = test system: SK-OV-3 ovarian
HCC-2998 colon = test system: HCC-2998 colon
KM20L2 colon = test system: KM20L2 colon
HCT-116 colon = test system: HCT-116 colon
CCRF-CEM leukemia = test system: CCRF-CEM leukemia
SR leukemia = test system: SR leukemia
HOP-62 NSCLC = test system: HOP-62 NSCLC
SF-295 CNS = test system: SF-295 CNS
EKVX NSCLC = test system: EKVX NSCLC
IGROV1 ovarian = test system: IGROV1 ovarian
SF-268 CNS = test system: SF-268 CNS
NCI-H460 lung = test system: NCI-H460 lung
SF-539 CNS = test system: SF-539 CNS
ACHN renal = test system: ACHN renal
HOP-92 NSCLC = test system: HOP-92 NSCLC
OVCAR-8 ovarian = test system: OVCAR-8 ovarian
LOX IMVI melanoma = test system: LOX IMVI melanoma
UO-31 renal = test system: UO-31 renal
HCT-15 colon = test system: HCT-15 colon
NCI-H23 lung = test system: NCI-H23 lung
SNB-78 CNS = test system: SNB-78 CNS
DMS 273 small cell lung = test system: DMS 273 small cell lung
SNB-75 CNS = test system: SNB-75 CNS
SN12K1 renal = test system: SN12K1 renal
HL-60(TB) leukemia = test system: HL-60(TB) leukemia
M19-MEL melanoma = test system: M19-MEL melanoma
NCI-H522 lung = test system: NCI-H522 lung
OVCAR-3 ovarian = test system: OVCAR-3 ovarian
RXF 393 renal = test system: RXF 393 renal
DMS 114 small cell lung = test system: DMS 114 small cell lung
HOP-18 NSCLC = test system: HOP-18 NSCLC
U251 CNS = test system: U251 CNS
DLD-1 colon = test system: DLD-1 colon
MALME-3M melanoma = test system: MALME-3M melanoma
A498 renal = test system: A498 renal
P388 leukemia = test system: P388 leukemia
M14 melanoma = test system: M14 melanoma
OVCAR-5 ovarian = test system: OVCAR-5 ovarian
SK-MEL-2 melanoma = test system: SK-MEL-2 melanoma
SN12C renal = test system: SN12C renal
OVCAR-4 ovarian = test system: OVCAR-4 ovarian
KM12 colon = test system: KM12 colon
TK-10 renal = test system: TK-10 renal
COLO 205 colon = test system: COLO 205 colon
XF 498 CNS = test system: XF 498 CNS
MCF7 breast = test system: MCF7 breast
RPMI-8226 leukemia = test system: RPMI-8226 leukemia
A549 NSCLC = test system: A549 NSCLC
SK-MEL-28 melanoma = test system: SK-MEL-28 melanoma
SW-620 colon = test system: SW-620 colon
UACC-62 melanoma = test system: UACC-62 melanoma
K-562 leukemia = test system: K-562 leukemia
NCI-H226 lung = test system: NCI-H226 lung
MOLT-4 leukemia = test system: MOLT-4 leukemia
UACC-257 melanoma = test system: UACC-257 melanoma
LXFL 529 NSCLC = test system: LXFL 529 NSCLC
NCI/ADR-RES ovarian = test system: NCI/ADR-RES ovarian
DU-145 prostate = test system: DU-145 prostate
786-0 renal = test system: 786-0 renal
MDA-MB-231 breast = test system: MDA-MB-231 breast
HS 578T breast = test system: HS 578T breast
MDA-N = test system: MDA-N
BT-549 breast = test system: BT-549 breast
PC-3 prostate = test system: PC-3 prostate
T-47D breast = test system: T-47D breast

## Cc1ccc2[nH]c3c(C)c4ccncc4c(C)c3c2c1
P388/ADR leukemia
  TGI: 3.62 µM
SNB-19 CNS
  TGI: 2.62 µM
SK-MEL-5 melanoma
  TGI: 2.92 µM
HT29 colon
  TGI: 2.58 µM
CAKI-1 renal
  TGI: 1.85 µM
SK-OV-3 ovarian
  TGI: 4.38 µM
HCC-2998 colon
  TGI: 2.87 µM
KM20L2 colon
  TGI: 5.57 µM
HCT-116 colon
  TGI: 1.61 µM
CCRF-CEM leukemia
  TGI: 3.74 µM
SR leukemia
  TGI: 4.25 µM
HOP-62 NSCLC
  TGI: 3.24 µM
SF-295 CNS
  TGI: 2.32 µM
EKVX NSCLC
  TGI: 2.5 µM
IGROV1 ovarian
  TGI: 2.44 µM
SF-268 CNS
  TGI: 2.11 µM
NCI-H460 lung
  TGI: 1.77 µM
SF-539 CNS
  TGI: 2.68 µM
ACHN renal
  TGI: 2.28 µM
HOP-92 NSCLC
  TGI: 3.09 µM
OVCAR-8 ovarian
  TGI: 2.25 µM
LOX IMVI melanoma
  TGI: 4.77 µM
UO-31 renal
  TGI: 3.03 µM
HCT-15 colon
  TGI: 2.22 µM
NCI-H23 lung
  TGI: 2.98 µM
SNB-78 CNS
  TGI: 4.64 µM
DMS 273 small cell lung
  TGI: 2.13 µM
SNB-75 CNS
  TGI: 3.17 µM
SN12K1 renal
  TGI: 2.29 µM
HL-60(TB) leukemia
  TGI: 3.42 µM
M19-MEL melanoma
  TGI: 2.75 µM
NCI-H522 lung
  TGI: 2.28 µM
OVCAR-3 ovarian
  TGI: 3.27 µM
RXF 393 renal
  TGI: 0.513 µM
DMS 114 small cell lung
  TGI: 2.71 µM
HOP-18 NSCLC
  TGI: 4.6 µM
U251 CNS
  TGI: 2.46 µM
DLD-1 colon
  TGI: 2.34 µM
MALME-3M melanoma
  TGI: 4.16 µM
A498 renal
  TGI: 2.91 µM
P388 leukemia
  TGI: 3.09 µM
M14 melanoma
  TGI: 3.29 µM
OVCAR-5 ovarian
  TGI: 2.81 µM
SK-MEL-2 melanoma
  TGI: 2.63 µM
SN12C renal
  TGI: 2.39 µM
OVCAR-4 ovarian
  TGI: 2.56 µM
KM12 colon
  TGI: 2.12 µM
TK-10 renal
  TGI: 14.2 µM
COLO 205 colon
  TGI: 2.23 µM
XF 498 CNS
  TGI: 3 µM
MCF7 breast
  TGI: 2.32 µM
RPMI-8226 leukemia
  TGI: 4.88 µM
A549 NSCLC
  TGI: 2.63 µM
SK-MEL-28 melanoma
  TGI: 3.47 µM
SW-620 colon
  TGI: 1.7 µM
UACC-62 melanoma
  TGI: 3.26 µM
K-562 leukemia
  TGI: 2.52 µM
NCI-H226 lung
  TGI: 7.59 µM
MOLT-4 leukemia
  TGI: 1.95 µM
UACC-257 melanoma
  TGI: 2.94 µM
LXFL 529 NSCLC
  TGI: 2.42 µM
NCI/ADR-RES ovarian
  TGI: 2.24 µM

## C=C1C(C)C2C(Cc3ccccc3)NC(=O)C23C(OC(C)=O)/C=C/C(C)(O)CC(C)C/C=C/C3C1O (configuration not stated)
P388/ADR leukemia
  TGI: 33.5 µM
SNB-19 CNS
  TGI: 20.7 µM
SK-MEL-5 melanoma
  TGI: 35.6 µM
HT29 colon
  TGI: > 100 µM
CAKI-1 renal
  TGI: 3.08 µM
SK-OV-3 ovarian
  TGI: 46.6 µM
HCC-2998 colon
  TGI: > 100 µM
DU-145 prostate
  TGI: > 100 µM
KM20L2 colon
  TGI: > 100 µM
HCT-116 colon
  TGI: > 100 µM
CCRF-CEM leukemia
  TGI: 85 µM
786-0 renal
  TGI: > 100 µM
SR leukemia
  TGI: > 59.9 µM
HOP-62 NSCLC
  TGI: 3.08 µM
SF-295 CNS
  TGI: 33.2 µM
EKVX NSCLC
  TGI: > 96.7 µM
IGROV1 ovarian
  TGI: 48.2 µM
MDA-MB-231 breast
  TGI: > 100 µM
SF-268 CNS
  TGI: 41.2 µM
NCI-H460 lung
  TGI: > 95.2 µM
SF-539 CNS
  TGI: 13 µM
ACHN renal
  TGI: > 100 µM
HOP-92 NSCLC
  TGI: 1.01 µM
OVCAR-8 ovarian
  TGI: > 100 µM
LOX IMVI melanoma
  TGI: 19.2 µM
UO-31 renal
  TGI: 1.1 µM
HCT-15 colon
  TGI: > 100 µM
NCI-H23 lung
  TGI: 91.6 µM
SNB-78 CNS
  TGI: 1.3 µM
DMS 273 small cell lung
  TGI: > 82 µM
SNB-75 CNS
  TGI: 0.0862 µM
SN12K1 renal
  TGI: 37.1 µM
HL-60(TB) leukemia
  TGI: 36 µM
M19-MEL melanoma
  TGI: > 100 µM
HS 578T breast
  TGI: 0.62 µM
NCI-H522 lung
  TGI: 45.1 µM
OVCAR-3 ovarian
  TGI: > 100 µM
RXF 393 renal
  TGI: 2.97 µM
DMS 114 small cell lung
  TGI: > 100 µM
HOP-18 NSCLC
  TGI: 0.814 µM
U251 CNS
  TGI: 18.4 µM
DLD-1 colon
  TGI: > 100 µM
MALME-3M melanoma
  TGI: > 94.4 µM
A498 renal
  TGI: 1.15 µM
MDA-N
  TGI: > 100 µM
P388 leukemia
  TGI: 41.3 µM
M14 melanoma
  TGI: > 100 µM
OVCAR-5 ovarian
  TGI: > 100 µM
SK-MEL-2 melanoma
  TGI: 76.5 µM
SN12C renal
  TGI: > 100 µM
OVCAR-4 ovarian
  TGI: 82.9 µM
KM12 colon
  TGI: > 100 µM
TK-10 renal
  TGI: > 54.5 µM
COLO 205 colon
  TGI: > 100 µM
XF 498 CNS
  TGI: 8.29 µM
BT-549 breast
  TGI: > 47.3 µM
MCF7 breast
  TGI: > 94.5 µM
RPMI-8226 leukemia
  TGI: 71.2 µM
A549 NSCLC
  TGI: > 100 µM
SK-MEL-28 melanoma
  TGI: > 97.7 µM
SW-620 colon
  TGI: > 100 µM
UACC-62 melanoma
  TGI: > 91.8 µM
K-562 leukemia
  TGI: > 100 µM
NCI-H226 lung
  TGI: 42.3 µM
MOLT-4 leukemia
  TGI: 77.2 µM
UACC-257 melanoma
  TGI: 86.5 µM
PC-3 prostate
  GI50: 15.8 µM
  TGI: > 100 µM
NCI/ADR-RES ovarian
  TGI: > 100 µM
T-47D breast
  TGI: > 100 µM
